pKi: −log10 of the molar value.
Target: Aminopeptidase N (Homo sapiens, UniProt P15144)
Assay: Inhibition of catalytic activity of human recombinant aminopeptidase N expressed in HEK293 cells
Assay type: cell-based

Aminopeptidase N, sequence (P15144 whole entry): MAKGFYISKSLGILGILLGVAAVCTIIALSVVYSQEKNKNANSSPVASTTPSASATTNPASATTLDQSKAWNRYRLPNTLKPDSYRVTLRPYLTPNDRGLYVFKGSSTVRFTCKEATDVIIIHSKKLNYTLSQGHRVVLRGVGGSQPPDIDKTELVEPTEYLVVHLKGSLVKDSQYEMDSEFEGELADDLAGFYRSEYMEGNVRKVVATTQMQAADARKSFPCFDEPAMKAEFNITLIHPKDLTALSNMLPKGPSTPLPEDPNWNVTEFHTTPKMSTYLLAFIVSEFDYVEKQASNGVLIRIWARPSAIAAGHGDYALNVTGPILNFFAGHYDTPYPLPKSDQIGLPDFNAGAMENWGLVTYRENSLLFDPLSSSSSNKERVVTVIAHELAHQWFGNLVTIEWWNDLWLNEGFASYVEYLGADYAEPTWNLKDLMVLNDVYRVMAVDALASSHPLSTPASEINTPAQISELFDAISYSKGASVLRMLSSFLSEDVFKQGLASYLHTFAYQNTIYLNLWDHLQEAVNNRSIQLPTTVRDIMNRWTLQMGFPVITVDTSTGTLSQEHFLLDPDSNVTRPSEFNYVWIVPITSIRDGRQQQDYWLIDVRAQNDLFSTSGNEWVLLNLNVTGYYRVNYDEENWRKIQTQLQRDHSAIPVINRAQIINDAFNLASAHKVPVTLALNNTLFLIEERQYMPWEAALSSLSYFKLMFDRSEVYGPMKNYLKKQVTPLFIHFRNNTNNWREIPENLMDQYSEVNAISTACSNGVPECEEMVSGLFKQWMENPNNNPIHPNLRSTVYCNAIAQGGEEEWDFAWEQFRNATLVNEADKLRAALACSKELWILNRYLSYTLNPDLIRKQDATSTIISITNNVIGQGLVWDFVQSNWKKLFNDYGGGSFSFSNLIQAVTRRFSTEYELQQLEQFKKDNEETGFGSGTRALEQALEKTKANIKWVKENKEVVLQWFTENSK

SMILES	pKi
N[C@H]1CCSSC[C@@H](C(=O)NCc2ccccc2CC(=O)O)NC(=O)C[C@H](Cc2ccc(O)cc2)NC1=O	5.14
N[C@H]1CCSSC[C@H](C(=O)NCc2ccccc2CC(=O)O)NC(=O)C[C@H](Cc2ccc(O)cc2)NC1=O	4.97
